According to publication PMC12372887, “Mechanism and cellular actions of the potent AMPK inhibitor BAY-3827” (Science Advances, 2025):

Columns and labels:
Experiment in all cases: Kinase panel (140 human kinases)
Type in all cases: biochemical
[1] = target: HIPK1 (Homo sapiens, UniProt Q86Z02)
Summary of the method: (§1)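 Duplicate radiometric filter-binding measurements with [γ-^33P]ATP gave percent residual activity, mean and SD. Tested concentrations: 0.1 μM and, for BAY-3827, 1 μM. ATP set per kinase to 5, 20 or 50 μM, not above Km.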

[2] = target: PKCγ (Homo sapiens, UniProt P05129)
Summary of the method: as §1

[3] = target: MLK3 (Homo sapiens, UniProt Q16584)
Summary of the method: as §1

[4] = target: HIPK3 (Homo sapiens, UniProt Q9H422)
Summary of the method: as §1

[5] = target: SmMLCK (Homo sapiens, UniProt Q15746)
Summary of the method: as §1

[6] = target: BTK (Homo sapiens, UniProt Q06187)
Summary of the method: as §1

[7] = target: T1, ULK1 (Homo sapiens, UniProt O75385)
T1 sequence (O75385 1-1050): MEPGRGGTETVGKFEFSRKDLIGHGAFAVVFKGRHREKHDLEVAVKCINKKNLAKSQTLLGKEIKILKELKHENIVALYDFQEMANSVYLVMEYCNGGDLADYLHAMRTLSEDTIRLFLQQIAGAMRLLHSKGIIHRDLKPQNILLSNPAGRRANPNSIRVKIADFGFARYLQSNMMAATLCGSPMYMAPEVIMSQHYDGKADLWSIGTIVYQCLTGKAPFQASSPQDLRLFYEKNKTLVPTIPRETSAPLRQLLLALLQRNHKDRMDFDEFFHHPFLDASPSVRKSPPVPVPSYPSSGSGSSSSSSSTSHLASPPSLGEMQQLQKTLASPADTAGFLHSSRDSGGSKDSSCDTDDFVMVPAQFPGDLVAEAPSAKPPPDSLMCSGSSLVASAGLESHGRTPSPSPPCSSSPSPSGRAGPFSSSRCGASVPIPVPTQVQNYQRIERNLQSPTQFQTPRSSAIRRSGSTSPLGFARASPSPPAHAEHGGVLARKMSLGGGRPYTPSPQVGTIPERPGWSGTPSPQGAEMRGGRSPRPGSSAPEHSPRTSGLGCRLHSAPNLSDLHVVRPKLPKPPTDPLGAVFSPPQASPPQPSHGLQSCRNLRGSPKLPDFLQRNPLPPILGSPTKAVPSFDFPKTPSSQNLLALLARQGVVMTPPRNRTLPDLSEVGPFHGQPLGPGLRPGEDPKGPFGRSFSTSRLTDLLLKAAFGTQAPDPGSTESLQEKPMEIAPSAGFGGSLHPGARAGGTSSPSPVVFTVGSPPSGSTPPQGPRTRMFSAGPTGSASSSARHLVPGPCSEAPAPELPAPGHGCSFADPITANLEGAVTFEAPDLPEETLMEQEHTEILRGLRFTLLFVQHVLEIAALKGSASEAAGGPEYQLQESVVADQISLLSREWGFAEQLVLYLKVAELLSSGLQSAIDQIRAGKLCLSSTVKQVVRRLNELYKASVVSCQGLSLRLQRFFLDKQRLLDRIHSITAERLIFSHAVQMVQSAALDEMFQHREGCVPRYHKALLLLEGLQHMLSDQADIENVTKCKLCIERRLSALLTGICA
Summary of the method: as §1

[8] = target: NEK2a (Homo sapiens, UniProt P51955)
Summary of the method: as §1

[9] = target: IKKe (Homo sapiens, UniProt Q14164)
Summary of the method: as §1

[10] = target: GCK (Homo sapiens, UniProt Q12851)
Summary of the method: as §1

[11] = target: JAK3 (Homo sapiens, UniProt P52333)
Summary of the method: as §1

[12] = target: ABL (Homo sapiens, UniProt P00519)
Summary of the method: as §1

[13] = target: PKBb (Homo sapiens, UniProt P31751)
Summary of the method: as §1

[14] = target: MSK1 (Homo sapiens, UniProt O75582)
Summary of the method: as §1

[15] = target: MARK2 (Homo sapiens, UniProt Q7KZI7)
Summary of the method: as §1

[16] = target: MAPKAP-K3 (Homo sapiens, UniProt Q16644)
Summary of the method: as §1

[17] = target: SIK3 (Homo sapiens, UniProt Q9Y2K2)
Summary of the method: as §1

[18] = target: EIF2AK3 (Homo sapiens, UniProt Q9NZJ5)
Summary of the method: as §1

[19] = target: BRSK1 (Homo sapiens, UniProt Q8TDC3)
Summary of the method: as §1

[20] = target: JNK1 (Homo sapiens, UniProt P45983)
Summary of the method: as §1

[21] = target: Aurora A (Homo sapiens, UniProt O14965)
Summary of the method: as §1

[22] = target: CSK (Homo sapiens, UniProt P41240)
Summary of the method: as §1

[23] = target: JNK2 (Homo sapiens, UniProt P45984)
Summary of the method: as §1

[24] = target: STK33 (Homo sapiens, UniProt Q9BYT3)
Summary of the method: as §1

[25] = target: MAP4K5 (Homo sapiens, UniProt Q9Y4K4)
Summary of the method: as §1

[26] = target: PIM2 (Homo sapiens, UniProt Q9P1W9)
Summary of the method: as §1

[27] = target: TIE2 (Homo sapiens, UniProt Q02763)
Summary of the method: as §1

[28] = 1 μM, cross-referenced with screen data of ref 37, read-out: activity remaining after treatment

Chain of MSK1 (O75582 whole entry): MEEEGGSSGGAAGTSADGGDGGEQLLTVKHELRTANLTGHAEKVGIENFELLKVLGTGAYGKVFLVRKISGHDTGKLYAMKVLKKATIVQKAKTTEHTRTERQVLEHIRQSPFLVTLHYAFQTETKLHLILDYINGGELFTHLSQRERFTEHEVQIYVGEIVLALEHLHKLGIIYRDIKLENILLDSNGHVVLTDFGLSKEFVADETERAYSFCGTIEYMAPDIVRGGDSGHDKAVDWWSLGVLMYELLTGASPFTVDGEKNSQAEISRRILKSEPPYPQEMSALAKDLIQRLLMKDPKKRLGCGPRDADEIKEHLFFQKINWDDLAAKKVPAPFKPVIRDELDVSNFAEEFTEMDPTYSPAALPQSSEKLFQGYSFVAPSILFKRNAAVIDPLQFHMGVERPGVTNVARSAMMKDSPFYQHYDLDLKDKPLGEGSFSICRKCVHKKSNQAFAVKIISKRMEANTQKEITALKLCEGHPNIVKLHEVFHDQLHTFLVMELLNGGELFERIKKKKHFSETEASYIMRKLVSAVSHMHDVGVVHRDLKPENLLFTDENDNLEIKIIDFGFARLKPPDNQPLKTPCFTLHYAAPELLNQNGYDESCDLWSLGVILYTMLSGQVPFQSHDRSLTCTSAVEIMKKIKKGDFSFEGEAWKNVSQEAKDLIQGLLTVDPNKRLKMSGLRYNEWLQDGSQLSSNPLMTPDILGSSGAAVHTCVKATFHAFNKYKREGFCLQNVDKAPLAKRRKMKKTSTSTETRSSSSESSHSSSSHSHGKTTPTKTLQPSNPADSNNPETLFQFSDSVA
Chain of ABL (P00519 whole entry): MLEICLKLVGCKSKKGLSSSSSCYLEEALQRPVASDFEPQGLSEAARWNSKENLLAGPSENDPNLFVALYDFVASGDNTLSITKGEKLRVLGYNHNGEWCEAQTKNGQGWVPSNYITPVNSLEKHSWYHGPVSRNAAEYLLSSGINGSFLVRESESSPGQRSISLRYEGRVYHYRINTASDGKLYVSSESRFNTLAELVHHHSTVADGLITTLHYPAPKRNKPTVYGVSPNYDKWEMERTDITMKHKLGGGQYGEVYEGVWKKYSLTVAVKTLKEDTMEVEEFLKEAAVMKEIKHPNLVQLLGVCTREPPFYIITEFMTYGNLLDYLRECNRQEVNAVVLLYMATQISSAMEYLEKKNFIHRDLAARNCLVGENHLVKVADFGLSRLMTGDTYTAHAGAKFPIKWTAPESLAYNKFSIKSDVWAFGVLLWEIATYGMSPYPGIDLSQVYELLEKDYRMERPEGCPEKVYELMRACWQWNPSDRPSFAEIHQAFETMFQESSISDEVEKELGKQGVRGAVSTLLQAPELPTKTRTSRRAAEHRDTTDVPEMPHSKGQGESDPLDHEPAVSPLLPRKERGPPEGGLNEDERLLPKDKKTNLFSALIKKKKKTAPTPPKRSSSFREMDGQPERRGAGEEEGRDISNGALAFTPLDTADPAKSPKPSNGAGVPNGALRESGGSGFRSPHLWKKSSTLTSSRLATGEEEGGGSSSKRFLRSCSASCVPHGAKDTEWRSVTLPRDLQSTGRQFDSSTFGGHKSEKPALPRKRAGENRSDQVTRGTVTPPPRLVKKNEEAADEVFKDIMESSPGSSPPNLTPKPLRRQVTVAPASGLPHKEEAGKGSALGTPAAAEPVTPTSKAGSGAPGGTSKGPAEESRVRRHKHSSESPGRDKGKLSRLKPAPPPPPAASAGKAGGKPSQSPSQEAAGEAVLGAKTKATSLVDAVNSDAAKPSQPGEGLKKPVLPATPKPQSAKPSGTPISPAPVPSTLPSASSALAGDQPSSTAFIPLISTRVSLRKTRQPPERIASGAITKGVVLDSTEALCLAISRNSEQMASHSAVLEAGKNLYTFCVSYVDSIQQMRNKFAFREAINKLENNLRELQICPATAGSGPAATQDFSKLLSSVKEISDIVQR
Chain of PIM2 (Q9P1W9 whole entry): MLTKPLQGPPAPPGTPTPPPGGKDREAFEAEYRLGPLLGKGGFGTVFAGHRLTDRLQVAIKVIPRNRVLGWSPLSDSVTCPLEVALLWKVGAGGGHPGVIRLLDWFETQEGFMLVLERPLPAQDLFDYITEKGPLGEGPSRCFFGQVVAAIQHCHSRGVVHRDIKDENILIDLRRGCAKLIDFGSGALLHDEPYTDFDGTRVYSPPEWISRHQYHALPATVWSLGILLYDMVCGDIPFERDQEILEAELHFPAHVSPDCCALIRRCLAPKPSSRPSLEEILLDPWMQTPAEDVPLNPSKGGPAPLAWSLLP
Chain of TIE2 (Q02763 23-1124): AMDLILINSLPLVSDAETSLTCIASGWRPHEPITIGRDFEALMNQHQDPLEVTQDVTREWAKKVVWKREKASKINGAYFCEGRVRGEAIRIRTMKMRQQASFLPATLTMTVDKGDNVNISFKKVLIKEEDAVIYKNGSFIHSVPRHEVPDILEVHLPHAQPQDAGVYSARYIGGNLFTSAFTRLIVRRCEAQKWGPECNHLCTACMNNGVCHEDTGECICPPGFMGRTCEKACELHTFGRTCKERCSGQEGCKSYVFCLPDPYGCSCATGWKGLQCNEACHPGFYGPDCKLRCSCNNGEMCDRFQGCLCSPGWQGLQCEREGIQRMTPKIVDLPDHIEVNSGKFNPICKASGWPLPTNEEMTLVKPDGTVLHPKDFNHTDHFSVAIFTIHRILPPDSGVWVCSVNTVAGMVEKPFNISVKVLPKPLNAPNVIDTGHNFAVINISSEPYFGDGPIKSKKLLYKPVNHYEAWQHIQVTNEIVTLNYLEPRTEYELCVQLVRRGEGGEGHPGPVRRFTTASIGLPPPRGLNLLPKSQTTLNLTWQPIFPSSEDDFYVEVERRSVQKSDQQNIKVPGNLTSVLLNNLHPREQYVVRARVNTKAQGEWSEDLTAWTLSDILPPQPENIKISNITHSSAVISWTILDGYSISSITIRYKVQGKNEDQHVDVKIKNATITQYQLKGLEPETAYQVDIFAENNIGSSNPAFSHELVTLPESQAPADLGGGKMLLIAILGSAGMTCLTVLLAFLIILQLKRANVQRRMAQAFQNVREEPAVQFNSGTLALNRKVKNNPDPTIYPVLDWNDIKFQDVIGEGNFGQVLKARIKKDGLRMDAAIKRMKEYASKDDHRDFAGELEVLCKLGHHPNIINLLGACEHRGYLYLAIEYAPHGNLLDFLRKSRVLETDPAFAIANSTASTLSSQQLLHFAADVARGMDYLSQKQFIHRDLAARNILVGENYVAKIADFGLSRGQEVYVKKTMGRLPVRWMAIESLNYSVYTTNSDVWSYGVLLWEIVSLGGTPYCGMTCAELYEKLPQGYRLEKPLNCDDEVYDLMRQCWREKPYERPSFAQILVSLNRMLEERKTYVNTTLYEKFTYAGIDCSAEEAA
Chain of GCK (Q12851 whole entry): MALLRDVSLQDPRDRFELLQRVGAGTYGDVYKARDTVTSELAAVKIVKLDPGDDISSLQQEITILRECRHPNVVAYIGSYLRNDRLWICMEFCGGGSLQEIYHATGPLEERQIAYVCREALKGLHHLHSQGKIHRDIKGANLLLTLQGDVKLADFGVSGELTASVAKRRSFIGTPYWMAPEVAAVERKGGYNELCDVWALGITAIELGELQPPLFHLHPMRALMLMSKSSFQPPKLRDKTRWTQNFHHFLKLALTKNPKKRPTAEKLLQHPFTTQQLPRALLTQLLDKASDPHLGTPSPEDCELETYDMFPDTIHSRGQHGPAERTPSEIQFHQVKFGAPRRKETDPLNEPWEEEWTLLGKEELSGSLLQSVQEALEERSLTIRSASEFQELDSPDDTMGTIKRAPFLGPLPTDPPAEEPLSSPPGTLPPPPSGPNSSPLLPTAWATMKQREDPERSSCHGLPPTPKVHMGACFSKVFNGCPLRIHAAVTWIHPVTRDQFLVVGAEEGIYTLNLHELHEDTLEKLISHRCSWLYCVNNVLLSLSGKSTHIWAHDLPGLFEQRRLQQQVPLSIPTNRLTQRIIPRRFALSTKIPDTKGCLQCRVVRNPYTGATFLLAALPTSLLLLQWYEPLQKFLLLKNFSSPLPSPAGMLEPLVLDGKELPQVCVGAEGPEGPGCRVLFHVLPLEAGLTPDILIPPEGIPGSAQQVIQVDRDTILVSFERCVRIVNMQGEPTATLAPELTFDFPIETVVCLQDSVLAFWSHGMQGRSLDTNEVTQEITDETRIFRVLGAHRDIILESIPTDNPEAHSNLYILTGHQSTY

Compound	remaining activity at 0.1 µM [1]	remaining activity at 0.1 µM [2]	remaining activity at 0.1 µM [3]	remaining activity at 0.1 µM [4]	remaining activity at 0.1 µM [5]	remaining activity at 0.1 µM [6]	remaining activity at 0.1 µM [7]	remaining activity at 0.1 µM [8]	remaining activity at 0.1 µM [9]	remaining activity at 0.1 µM [10]	remaining activity at 0.1 µM [11]	remaining activity at 0.1 µM [12]	remaining activity at 0.1 µM [13]	remaining activity at 0.1 µM [14]	remaining activity at 0.1 µM [15]	remaining activity at 0.1 µM [16]	remaining activity at 0.1 µM [17]	remaining activity at 0.1 µM [18]	remaining activity at 0.1 µM [19]	remaining activity at 0.1 µM [20]	further results
CCc1ccccc1C(=O)Nc1n[nH]c2c(C)c(F)c(C3C(C#N)=C(C)N(C)C(C)=C3C#N)cc12 [BAY-3827, N-[5-(3,5-dicyano-1,2,6-trimethyl-4H-pyridin-4-yl)-6-fluoro-7-methyl-1H-indazol-3-yl]-2-ethylbenzamide]	94%	94%	85%	77%	76%	85%	88%	122%	85%	105%	90%	107%	93%	56%	77%	101%	99%	98%	77%	94%	remaining activity at 1 µM ([12]; 1 μM, ABL1, cross-referenced with screen data of ref 37, read-out: activity remaining after treatment): ≥ 99%; remaining activity at 1 µM [14, 28]: ≤ 50%; remaining activity at 0.1 µM [21]: 90%; remaining activity at 0.1 µM [22]: 79%; remaining activity at 0.1 µM [23]: 105%; remaining activity at 0.1 µM [24]: 94%; remaining activity at 0.1 µM [25]: 97%; remaining activity at 0.1 µM [26]: 112%; remaining activity at 1 µM [26, 28]: ≥ 99%; remaining activity at 0.1 µM [27]: 69%
CC1=C(C#N)C(c2ccc3c(c2)c(NC(=O)c2ccccc2C)nn3C)C(C#N)=C(C)N1 [BAY-974, N-[5-(3,5-dicyano-2,6-dimethyl-1,4-dihydropyridin-4-yl)-1-methylindazol-3-yl]-2-methylbenzamide]	91%	115%	90%	99%	80%	94%	≤ 50%	121%	101%	65%	106%	59%	99%	100%	87%	81%	81%	113%	96%	106%	inhibition at 0.1 µM [7]: 55 to 90%; remaining activity at 0.1 µM [21]: 79%; remaining activity at 0.1 µM [22]: 123%; remaining activity at 0.1 µM [23]: 104%; remaining activity at 0.1 µM [24]: 82%; remaining activity at 0.1 µM [25]: 89%; remaining activity at 0.1 µM [26]: 113%; remaining activity at 0.1 µM [27]: 103%
